Measurements published in patent US12498382B2, “Biomarkers for vitiligo” (INCYTE CORPORATION, priority 2019, dated 2025).

System: HaCaT cells
Test: Concentrations of inflammatory mediators produced by HaCaT cells stimulated with TNFα and IFNγ in presence/absence of JAK inhibitors (ProCarta)
Format: cell-based, human
Conditions: TNFα 25 ng/mL + IFNγ 25 ng/mL
Protocol: After 48 hours, cell culture media was removed from 24 well plates and replaced with 250 uL of media containing serial diluted drug, then incubated for 15 minutes at 37° C./5% CO2. […] The final concentration of Recombinant Human Interferon gamma and Recombinant Human Tumor Necrosis Factor alpha was 25 ng/mL of each cytokine. Cytokine stimulation added to wells containing drug brought the final concentrations for each drug treatment to 25 nM, 50 nM, 100 nM, and 200 nM. Treated plates were mixed by gentle agitation for 30 seconds then incubated for 24 hours at 37° C./5% CO2. At the end of the 24 hour incubation media was immediately removed from each plate.
Media was incubated with antibody conjugated beads designed to bind to the epitopes of specific target proteins and identify the bound protein through the bead's distinctive spectral pattern. Biotinylated detection antibodies, designed to bind to different epitopes of the same target proteins, and Streptavidin-PE are added to assay plates to quantify the amount of the target proteins. Assay plates were read on the Luminex 200 and data were expressed as Net Median Fluorescence Intensity. […] The concentration of each protein was extrapolated from the antigen standard curve and concentrations were expressed as pg/mL (Table 15).

Work on `N#CCC1(n2cc(-c3ncnc4[nH]ccc34)cn2)CN(C2CCN(C(=O)c3ccnc(C(F)(F)F)c3F)CC2)C1` [Cpc B] yielded a BDNF concentration (drug 25 nM) of 4.05 ± 0.19 pg/mL, an EGF concentration (drug 25 nM) of 1.76 ± 0.17 pg/mL and an Eotaxin concentration (drug 25 nM) of 10.22 ± 0.15 pg/mL. For the same molecule, the FGF-2 concentration (drug 25 nM) was 20.63 ± 1.49 pg/mL, the GM-CSF concentration (drug 25 nM) was 130.13 ± 2.13 pg/mL and the GRO alpha concentration (drug 25 nM) was 547.38 ± 31.41 pg/mL. For the same molecule, the HGF concentration (drug 25 nM) was 14.15 ± 0.3 pg/mL, the IFN alpha concentration (drug 25 nM) was 0.24 ± 0.02 pg/mL and the IFN gamma concentration (drug 25 nM) was 35023.68 ± 10759.49 pg/mL. For the same molecule, the IL1RA concentration (drug 25 nM) was 5944.59 ± 264.97 pg/mL, the IL1 alpha concentration (drug 25 nM) was 7.34 ± 0.31 pg/mL and the IL1 beta concentration (drug 25 nM) was 9.53 ± 0.3 pg/mL. The IL2 concentration (drug 25 nM) was 33.62 ± 1.88 pg/mL, the IL4 concentration (drug 25 nM) was 6.74 ± 1.65 pg/mL and the IL5 concentration (drug 25 nM) was 27.31 ± 1.32 pg/mL. For the same molecule, the IL6 concentration (drug 25 nM) was 749.64 ± 32.94 pg/mL, the IL7 concentration (drug 25 nM) was 2.14 ± 0.12 pg/mL and the IL8 concentration (drug 25 nM) was 2837.03 ± 135.03 pg/mL. The IL9 concentration (drug 25 nM) was 4.55 ± 0.85 pg/mL, the IL10 concentration (drug 25 nM) was 0.87 ± 0.06 pg/mL and the IL12p70 concentration (drug 25 nM) was 2.01 ± 0.21 pg/mL. For the same molecule, the IL13 concentration (drug 25 nM) was 2.79 ± 0.33 pg/mL, the IL15 concentration (drug 25 nM) was 3.3 ± 0.93 pg/mL and the IL17A concentration (drug 25 nM) was 4.6 ± 0.5 pg/mL. The IL18 concentration (drug 25 nM) was 162.16 ± 4.98 pg/mL, the IL21 concentration (drug 25 nM) was 2.66 ± 0.22 pg/mL and the IL22 concentration (drug 25 nM) was 8.69 ± 0.42 pg/mL. The IL23 concentration (drug 25 nM) was 7.28 ± 0.16 pg/mL, the IL27 concentration (drug 25 nM) was 8.03 ± 1.71 pg/mL and the IL31 concentration (drug 25 nM) was 3.6 ± 0.28 pg/mL. For the same molecule, the IP-10/CXCL10 concentration (drug 25 nM) was 4068.98 ± 507.12 pg/mL, the LIF concentration (drug 25 nM) was 68.82 ± 2.51 pg/mL and the MCP1 concentration (drug 25 nM) was 29762.04 ± 13226.23 pg/mL. For the same molecule, the MIP1 alpha concentration (drug 25 nM) was 103.81 ± 3.29 pg/mL, the MIP1 beta concentration (drug 25 nM) was 319.77 ± 6.92 pg/mL and the PDGF-BB concentration (drug 25 nM) was 5.19 ± 0.15 pg/mL. For the same molecule, the PIGF-1 concentration (drug 25 nM) was 56.69 ± 2.37 pg/mL, the RANTES concentration (drug 25 nM) was 203.77 ± 12.55 pg/mL and the SCF concentration (drug 25 nM) was 4.33 ± 0.18 pg/mL. For the same molecule, the SDF-1 alpha concentration (drug 25 nM) was 3430.87 ± 111.52 pg/mL, the TNF alpha concentration (drug 25 nM) was 10574.99 ± 753.02 pg/mL and the TNF beta concentration (drug 25 nM) was 4.91 ± 0.79 pg/mL. The VEGF-A concentration (drug 25 nM) was 1249.75 ± 44.89 pg/mL, the VEGF-D concentration (drug 25 nM) was 9.22 ± 0.87 pg/mL and the bNGF concentration (drug 25 nM) was 7.7 ± 0.55 pg/mL. For the same molecule, the BDNF concentration (drug 50 nM) was 4.04 ± 0.24 pg/mL, the EGF concentration (drug 50 nM) was 1.67 ± 0.15 pg/mL and the Eotaxin concentration (drug 50 nM) was 9.92 ± 0.2 pg/mL. For the same molecule, the FGF-2 concentration (drug 50 nM) was 19.94 ± 1.49 pg/mL, the GM-CSF concentration (drug 50 nM) was 128.05 ± 2.9 pg/mL and the GRO alpha concentration (drug 50 nM) was 544.63 ± 38.3 pg/mL. It also gave an HGF concentration (drug 50 nM) of 13.65 ± 0.53 pg/mL, an IFN alpha concentration (drug 50 nM) of 0.26 ± 0 pg/mL and an IFN gamma concentration (drug 50 nM) of 28977.92 ± 7400.61 pg/mL. For the same molecule, the IL1RA concentration (drug 50 nM) was 5840.44 ± 314.35 pg/mL, the IL1 alpha concentration (drug 50 nM) was 7.06 ± 0.37 pg/mL and the IL1 beta concentration (drug 50 nM) was 8.96 ± 0.43 pg/mL. For the same molecule, the IL2 concentration (drug 50 nM) was 31.96 ± 1.47 pg/mL, the IL4 concentration (drug 50 nM) was 5.74 ± 1.1 pg/mL and the IL5 concentration (drug 50 nM) was 25.5 ± 1.65 pg/mL. For the same molecule, the IL6 concentration (drug 50 nM) was 674.21 ± 27.15 pg/mL, the IL7 concentration (drug 50 nM) was 1.9 ± 0.12 pg/mL and the IL8 concentration (drug 50 nM) was 2862.21 ± 240.57 pg/mL. For the same molecule, the IL9 concentration (drug 50 nM) was 4.13 ± 0.43 pg/mL, the IL10 concentration (drug 50 nM) was 0.85 ± 0.05 pg/mL and the IL12p70 concentration (drug 50 nM) was 1.68 ± 0.21 pg/mL. For the same molecule, the IL13 concentration (drug 50 nM) was 2.73 ± 0.23 pg/mL, the IL15 concentration (drug 50 nM) was 2.71 ± 0.65 pg/mL and the IL17A concentration (drug 50 nM) was 4.09 ± 0.43 pg/mL. For the same molecule, the IL18 concentration (drug 50 nM) was 153.4 ± 3.46 pg/mL, the IL21 concentration (drug 50 nM) was 2.45 ± 0.29 pg/mL and the IL22 concentration (drug 50 nM) was 8.9 ± 0^ pg/mL. For the same molecule, the IL23 concentration (drug 50 nM) was 7.43 ± 0 pg/mL, the IL27 concentration (drug 50 nM) was 6.95 ± 0.83 pg/mL and the IL31 concentration (drug 50 nM) was 3.22 ± 0.38 pg/mL. For the same molecule, the IP-10/CXCL10 concentration (drug 50 nM) was 3872.74 ± 295.01 pg/mL, the LIF concentration (drug 50 nM) was 67.89 ± 3.08 pg/mL and the MCP1 concentration (drug 50 nM) was 27471.13 ± 12271.13 pg/mL. It also gave an MIP1 alpha concentration (drug 50 nM) of 100.64 ± 4.66 pg/mL, an MIP1 beta concentration (drug 50 nM) of 318.84 ± 8.17 pg/mL and a PDGF-BB concentration (drug 50 nM) of 5.28 ± 0.18 pg/mL. For the same molecule, the PIGF-1 concentration (drug 50 nM) was 53.92 ± 2.81 pg/mL, the RANTES concentration (drug 50 nM) was 198.35 ± 15.1 pg/mL and the SCF concentration (drug 50 nM) was 4.16 ± 0.18 pg/mL. It also gave an SDF-1 alpha concentration (drug 50 nM) of 3356.32 ± 136.22 pg/mL, a TNF alpha concentration (drug 50 nM) of 11776.9 ± 1658.47 pg/mL and a TNF beta concentration (drug 50 nM) of 4.13 ± 0.5 pg/mL. For the same molecule, the VEGF-A concentration (drug 50 nM) was 1242.76 ± 50.39 pg/mL, the VEGF-D concentration (drug 50 nM) was 9.72 ± 0.75 pg/mL and the bNGF concentration (drug 50 nM) was 7.09 ± 0.71 pg/mL. The BDNF concentration (drug 100 nM) was 4.06 ± 0.26 pg/mL, the EGF concentration (drug 100 nM) was 1.56 ± 0.2 pg/mL and the Eotaxin concentration (drug 100 nM) was 10.09 ± 0.19 pg/mL. The FGF-2 concentration (drug 100 nM) was 20.42 ± 1.5 pg/mL, the GM-CSF concentration (drug 100 nM) was 133.06 ± 4.24 pg/mL and the GRO alpha concentration (drug 100 nM) was 568.49 ± 35.18 pg/mL. The HGF concentration (drug 100 nM) was 14.41 ± 0.55 pg/mL, the IFN alpha concentration (drug 100 nM) was 0.26 ± 0 pg/mL and the IFN gamma concentration (drug 100 nM) was 29276.66 ± 7697.74 pg/mL. For the same molecule, the IL1RA concentration (drug 100 nM) was 5953.24 ± 309.78 pg/mL, the IL1 alpha concentration (drug 100 nM) was 7 ± 0.41 pg/mL and the IL1 beta concentration (drug 100 nM) was 8.66 ± 0.41 pg/mL. The IL2 concentration (drug 100 nM) was 31.33 ± 1.43 pg/mL, the IL4 concentration (drug 100 nM) was 5.78 ± 0.72 pg/mL and the IL5 concentration (drug 100 nM) was 26.52 ± 1.54 pg/mL. The IL6 concentration (drug 100 nM) was 643.8 ± 27.14 pg/mL, the IL7 concentration (drug 100 nM) was 2.12 ± 0.14 pg/mL and the IL8 concentration (drug 100 nM) was 2980.9 ± 173.36 pg/mL. It also gave an IL9 concentration (drug 100 nM) of 4.13 ± 0.43 pg/mL, an IL10 concentration (drug 100 nM) of 0.88 ± 0.06 pg/mL and an IL12p70 concentration (drug 100 nM) of 1.77 ± 0.18 pg/mL. For the same molecule, the IL13 concentration (drug 100 nM) was 2.55 ± 0.33 pg/mL.
